Measured values: PMC6802645, “6′-Sialylgalactose inhibits vascular endothelial growth factor receptor 2-mediated angiogenesis” (Experimental & Molecular Medicine, 2019)

Biological target: T1, VEGFR-2 (vascular endothelial growth factor receptor 2) (Homo sapiens, UniProt P35968)
T1 construct: gene KDR; second and third IgG-like domains of VEGFR-2 (VEGFR-2 IG3)
Experiment: SPR (Biacore T100, VEGFR-2 IG3 immobilized by amine coupling on CM5)
Format: binding

T1 sequence (P35968 141-320 limits assumed): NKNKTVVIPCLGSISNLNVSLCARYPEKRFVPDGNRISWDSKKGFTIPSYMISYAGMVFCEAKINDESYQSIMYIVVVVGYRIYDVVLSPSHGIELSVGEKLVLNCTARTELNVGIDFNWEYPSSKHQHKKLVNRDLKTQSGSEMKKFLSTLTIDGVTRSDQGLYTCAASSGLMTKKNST

| Kd [nM] | Compound |
| --- | --- |
| 2.35 | CC(=O)N[C@H]1[C@H]([C@H](O)[C@H](O)CO)OC(OC[C@H]2OC(O)[C@H](O)[C@@H](O)[C@H]2O)(C(=O)O)C[C@@H]1O (some centres unmarked) [6SG, 6′-sialylgalactose] |
| 3.05 | CC(=O)N[C@H]1[C@H]([C@H](O)[C@H](O)CO)OC(OC[C@H]2O[C@@H](O[C@H]3[C@H](O)[C@@H](O)C(O)O[C@@H]3CO)[C@H](O)[C@@H](O)[C@H]2O)(C(=O)O)C[C@@H]1O (some centres unmarked) [6SL, 6′-sialyllactose] |
